Measured values: ChEMBL document CHEMBL1921747, “Novel cytotoxic chalcones from Litsea rubescens and Litsea pedunculata” (Bioorg Med Chem Lett, 2011)
Values after ≈ are worked out from the molar mass of the structure shown.

Key:
HepG2 = experiment: Cytotoxicity against human HepG2 cells after 48 hrs by MTT assay; assay type: functional, cell-based; settings: HepG2, 48 h
HL-60 [1] = experiment: Cytotoxicity against human HL60 cells after 48 hrs by MTT assay; assay type: functional, cell-based; settings: HL-60, 48 h
A-431 = experiment: Cytotoxicity against human A431 cells after 48 hrs by MTT assay; assay type: functional, cell-based; settings: A-431, 48 h
HL-60 [2] = experiment: Ratio of cisplatin IC50 to compound IC50 for human HL60 cells; assay type: functional

| SMILES | IC50 (HepG2) | IC50 (HL-60 [1]) | IC50 (A-431) | Ratio IC50 (HL-60 [2]) |
| --- | --- | --- | --- | --- |
| COC1=CC(=O)C2(OC2C)C(O)=C1C(=O)/C=C/c1ccccc1 (configuration not stated) [LITSEAONE A] | 23 µg/mL (≈ 73.6 µM) | 6.1 µg/mL (≈ 19.5 µM) | 11.1 µg/mL (≈ 35.5 µM) | 2.1 |
| COc1cc(O)c(C(=O)/C=C/c2ccccc2)c2c1OC(C)O2 (configuration not stated) [LITSEAONE B] | 21.5 µg/mL (≈ 68.8 µM) | 10.2 µg/mL (≈ 32.7 µM) | 13.9 µg/mL (≈ 44.5 µM) | – |
